How the values were obtained:
[1] = target: T1, HSF-PLA2 (extracellular PLA2 obtained from human synovial fluid) (Homo sapiens, UniProt P14555); test: Assay for inhibition of HSF-PLA2 in vitro; type: biochemical; conditions: read-out: % Inhib of HSF-PLA2; for inhibition at 10 µM: 10 μM test compound; for inhibition at 5 µM: 5 μM test compound
T1 construct: extracellular enzyme obtained from human synovial fluid; from tissue; host or cells: human synovial fluid (pooled)
T1 sequence (P14555 21-144): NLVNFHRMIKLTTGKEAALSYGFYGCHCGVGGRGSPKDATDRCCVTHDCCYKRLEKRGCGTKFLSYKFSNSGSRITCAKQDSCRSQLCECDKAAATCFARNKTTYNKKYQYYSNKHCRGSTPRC
Protocol: Assay for Inhibition of HSF-PLA2 In Vitro
The PLA2 used in this test is the extracellular enzyme obtained from human synovial fluid (HSF-PLA2).
The assay for HSF-PLA2 activity was a modification of the described method [Franson R., Dobrow R., Weiss, J., Elsbach P., and Weglick W. B., J. Lipid Res., 19, 18-23 (1978)] which was conducted using [1-^14 C]-oleate-labelled E. coli substrate in excess at a final concentration of 20,000 dpm/ml. This was equivalent to 18.2 mM of cell membrane phospholipid phosphorus and 2×10^9 autoclaved E. coli/ml. The optimal conditions which were developed for the assay of HSF-PLA2 inhibitors are summarized as follows. A total volume of 0.5 ml of reaction mixture typically had the following final composition: substrate (20,000 dpm/ml); enzyme (0.1% HSF, v/v); 2 mM CaCl2; 150 mM Na^+; 50 mM sodium HEPES buffer, pH 7.3; and 1% dimethyl sulfoxide (DMSO, used to solubilize test inhibitors) in the presence or absence of inhibitor. The reaction was initiated by the addition of HSF-PLA2 and duplicate samples of the mixture were incubated in 13×100 mm glass tubes with shaking for 30 minutes at 37° C. The reaction was terminated by the addition of 2.5 ml of chloroform-methanol (1 to 1.5, v/v). The extraction of lipids from the stopped reaction mixture was conducted by the further additions of 0.5 ml of chloroform and 1 ml of water with mixing. After centrifuging, the lower chloroform phase was transferred to smaller glass tubes and the solvent was evaporated to dryness with a nitrogen stream. The extracted lipid residue was redissolved in […] of a solution containing carrier oleic acid (0.2 mg/ml) in chloroform-methanol [9 to 1, v/v]). The whole lipid extract was applied to a preactivated (30 minutes at 110° C.) silica gel-impregnated glass fiber thin layer chromatography sheet (ITLC type SG sheet from Gelman Sciences Inc., Ann Arbor, Mich.) using hexane-acetic acid (100 to 1, v/v) as the developing solvent. This TLC system rapidly (6 minutes) resolved the enzymatically released product, ^14 C-oleic acid, from the unreacted ^14 C-phospholipid substrate. The unsaturated lipids were located on the chromatogram by a brief exposure to iodine vapor. The oleic acid zone (Rf value 0.95) and phospholipid zone (origin) were cut out, chopped into small pieces, shaken with 2 ml of ethanol-water (80 to 20, v/v) and 15 ml of Aquasol and counted for radio-activity. A control incubation of substrate in the absence of HSF-PLA2 was performed in each experiment. The PLA2 activity of the human synovial fluid was corrected for this small control value. […] The specific activity of PLA2 in the pooled human synovial fluid under the optimal assay conditions was 49.2 nmoles [1-^14 C]-oleic aid released hour^-1 mg^-1. The IC50 (μM concentration of test compound that produces 50% inhibition of PLA2 activity) was determined for each test compound.

[2] = tested on: TPA-induced mouse ear edema; test: TPA induced mouse ear edema test; type: in vivo, male CD-1 mice; conditions: for % Inhib of TPA Mouse Ear Edema (1 mg) / % Inhib of Myeloperoxidase Mouse Ear Edema (1 mg): 1 mg topical
Protocol: TPA Induced Mouse Ear Edema Test
The TPA-induced mouse ear edema test, a model of irritant-induced contact dermatitis is described in the following reference: J. M. Young, B. M. Wagner and D. A. Spires, J. Invest. Dermatology 80, 48-52 (1983).
For this test, 10 μl of 12-O-tetradecanoylphorbol-13-acetate (TPA), dissolved in a vehicle of pyridine: water: diethylether (20:5:75), was applied to the outside of the right ear of 3-4 week old male CD-1 mice (8 animals per group). The test compounds were dissolved in the same vehicle and 10 μl was applied to the inside of the same ear 30 minutes prior to the application of TPA. Ear punches (6 mm) were removed at 6 hours after TPA application, weighed and assayed for myeloperoxidase (MPO) activity as described in the following reference: P. P. Bradley, D. A. Priebat, R. D. Christensen and G. Rothstein, J. Invest. Dermatology 78, 206-209 (1982). The wet weight of the ear biopsy punches is a measure of the ear edema and the level of MPO activity in the ear punches is an indicator of neutrophil infiltration. The data are expressed as percent inhibition in drug-treatedanimals relative to the control group. Table II sets forth the percentage inhibition of edema by representative compounds of the invention in this test. Table III sets forth the percentage inhibition of myeloperoxidase by representative compounds of the invention in this test.

[3] = tested on: croton oil-induced mouse ear edema; test: Croton oil mouse ear edema test; type: in vivo, male CD-1 mice; conditions: 1 mg topical, coapplied with croton oil; ear punch weight at 6 hours
Protocol: Croton Oil Mouse Ear Edema Test
The croton oil-induced mouse ear edema test, a model of irritant-induced contact dermatitis, has been used for evaluation of the PLA2 inhibitors by the topical route of administration. This test was carried out as described in the following references: […]
Twenty five μl of a 1% croton oil solution [dissolved in a mixture of pyridine/water/diethyl ether at a ratio of 5/20/75 (croton oil vehicle)] are applied to the outer side of the right ear of 3-4 week old male CD-1 mice (8 animals per group). The test compounds are dissolved directly in the 1% croton oil solution at various concentrations and coapplied. Control animals receive 25 μl of croton oil vehicle on the right ear. Biopsy punches are removed at 6 hours from the right ear of the animals using a 6 mm skin trephine (Roboz, Washington, D.C.) and the wet weight of the ear punches is determined. The weight of the biopsy punches is a measure of ear inflammation, primarily edema. The data are expressed as percent inhibition relative to control groups.
Statistical analysis of the mean edema values of the control versus the treated groups is performed using Student's t-test. The significance of changes from mean value for vehicle-treated animals is as follows (*p<0.05, **p<0.01, ***p<0.005, ns/not significant).

[4] = tested on: carrageenan-induced paw edema; test: Rat carrageenan paw edema; type: in vivo, Lewis rats; conditions: for % Inhib of Carrageenan Paw Edema 2 hr 30 mg/kg ip: 1 hr prior to carrageenan
Protocol: Rat Carrageenan Paw Edema
Representative compounds of the invention were tested in rat carrageenan-induced paw edema to determine their ability to inhibit this acute inflammatory response. Test compounds were administered intraperitoneally or orally to groups of seven Lewis rats (~200 gm) 1 hr prior to carrageenan administration. The test compounds were dissolved in dimethyl sulfoxide for intraperitoneal administration and dissolved or suspended in Labrafil […] for oral administration. At 0 hour, 0.1 mL of 1% carrageenan dissolved in pyrogen free […] was injected subplanetary into the right hind paw to elicit the inflammatory response. The volume (in mL) of the right hind paw was measured by immersion of the paw to the level of the lateral malleolus in an aqueous plethysmometer immediately prior to the injection of carrageenan and then at 1, 2 and 4 hr after carrageenan injection. The paw edema was calculated by subtracting the zero time reading from the readings taken after injection. The percent change of the edema volume from the vehicle treated control was calculated to determine the activity of the test compound. Statistical analysis of the mean paw edema values of the control versus the treated groups was performed using Student's t-test.

[5] = 30 minutes prior to TPA, ear punch weight at 6 hours
[6] = MPO activity in ear punches 6 hours after TPA

Row | Compound | inhibition at 10 µM [1] | % Inhib of TPA Mouse Ear Edema (1 mg) [2, 5] | further results
1 | CCCCCCCCCCCCCCCCCCOc1ccc(OCCCOc2ccc(O)cc2)c(C(=O)N(CC(=O)O)CC(=O)O)c1 [Example 100] | 77% | 65% | –
2 | CCCCCCCCCCCCCCOc1ccc(OCc2ccccc2)c(C(=O)N(CC(=O)O)CC(=O)O)c1 [Example 86, N-(Carboxymethyl)-N-[5-(tetradecyloxy)-2-(phenylmethoxy)benzoyl]glycine] | 70% | 47% | % Inhib of Myeloperoxidase Mouse Ear Edema (1 mg) [2, 6]: 63%
3 | CCCCCCCCCCCCCCCCCCOc1ccc(OCc2ccccc2)c(C(=O)N(CC(=O)O)CC(=O)O)c1 [Example 81, N-(Carboxymethyl)-N-[5-(octadecyloxy)-2-(phenylmethoxy)benzoyl]glycine] | – | – | inhibition at 5 µM [1]: 42%; % Inhib of TPA Mouse Ear Edema ([2]; 0.3 mg topical, 30 minutes prior to TPA, ear punch weight at 6 hours): 60%; % Inhib of Myeloperoxidase Mouse Ear Edema ([2]; 0.3 mg topical, MPO activity in ear punches 6 hours after TPA): 75%; % Inhib of Croton Oil Mouse Ear Edema (1 mg) [3]: 74%
4 | O=C(O)CN(CC(=O)O)C(=O)C(=O)c1ccc(OCCCCCCCCCCCCOc2ccccc2)cc1 [Example 114, N-(Carboxymethyl)-N-[1,2-dioxo-2-[4-[(12-phenoxydodecyl)oxy]phenyl]ethyl]glycine] | 35% | 37% | –
5 | CCCCCCCCCCCCCC(=O)Nc1cc(NC(=O)CCCCCCCCCCCCC)cc(C(=O)N(CC(=O)O)CC(=O)O)c1 [Example 56, N-(Carboxymethyl)-N-[3,5-bis(1-oxotetradecylamino)benzoyl]glycine] | – | – | % Inhib of Carrageenan Paw Edema 2 hr ([4]; 100 mg/kg po): 26%
6 | CCCCCCCCCCOc1cc(OCCCCCCCCCC)cc(C(=O)C(=O)N(CC(=O)O)CC(=O)O)c1 [Example 73, N-(Carboxymethyl)-N-[[3,5-bis(decyloxy)phenyl]-1,2-dioxoethyl]glycine] | – | – | % Inhib of Carrageenan Paw Edema 2 hr 30 mg/kg ip [4]: 56%; inhibition at 5 µM [1]: 62%
7 | CCCCCCCCCCOc1ccc(OCc2ccccc2)c(C(=O)N(CC(=O)O)CC(=O)O)c1 [Example 91, N-(Carboxymethyl)-N-[5-(decyloxy)-2-(phenylmethoxy)benzoyl]glycine] | 70% | 59% | % Inhib of Myeloperoxidase Mouse Ear Edema (1 mg) [2, 6]: 78%
8 | CCCCCCCCCCCCCCCCCCOc1cc(OCCOCCOCCOCC)cc(C(=O)N(CC(=O)O)CC(=O)O)c1 [Example 48, N-(carboxymethyl)-N-[3-[2-[2-(2-ethoxyethoxy)ethoxy]ethoxy]-(5-octadecyloxy)benzoyl]glycine] | – | – | % Inhib of Carrageenan Paw Edema 2 hr 30 mg/kg ip [4]: 76%; inhibition at 5 µM [1]: 36%; % Inhib of Croton Oil Mouse Ear Edema (1 mg) [3]: 19%
9 | O=C(O)CN(CC(=O)O)C(=O)c1cc(OCCCCCCOc2ccc(-c3ccccc3)cc2)ccc1OCc1ccccc1 [Example 105, N-[5-[[6-([1,1'-biphenyl]-4-yloxy)hexyl]oxy]-2-(phenylmethoxy)benzoyl]-N-(carboxymethyl)glycine] | 38% | 67% | –
10 | CCCCCCCCCCOc1cc(OCCCCCCCCCC)cc(C(=O)N(CC(=O)O)CC(=O)O)c1 [Example 11, N-(Carboxymethyl)-N-[3,5-bis(decyloxy)benzoyl]glycine] | – | – | % Inhib of Carrageenan Paw Edema 2 hr ([4]; 50 mg/kg): 50%; inhibition at 6 µM ([1]; 6 μM test compound): 50%; % Inhib of Croton Oil Mouse Ear Edema (1 mg) [3]: 70%
11 | O=C(O)CN(CC(=O)O)C(=O)c1cc(OCCCCCCCCCCCCOc2ccccc2)ccc1OCc1ccccc1 [Example 110, N-(Carboxymethyl)-N-[5-[(12-phenoxydodecyl)oxy]-2-(phenylmethoxy)benzoyl]glycine] | 61% | 57% | –
12 | CCCCCCCCCCCCCCCCCCOc1ccc(OCCCc2ccccc2)c(C(=O)N(CC(=O)O)CC(=O)O)c1 [Example 95, N-(Carboxymethyl)-N-[5-(octadecyloxy)-2-(3-phenylpropoxy)benzoyl]glycine] | 71% | 55% | –
13 | CCCCCCCCCCCCCCCCCCOc1ccc(OCCCOc2ccc(OCc3ccccc3)cc2)c(C(=O)N(CC(=O)O)CC(=O)O)c1 [Example 99, N-(Carboxymethyl)-N-[5-(octadecyloxy)-2-[3-[4-(phenylmethoxy)phenoxy]propoxy]benzoyl]glycine] | 86% | 50% | –
